Measurements: patent US12285408B2, “Methods and compositions for the treatment of snake bite” (priority 2021, dated 2025)

Experiments:
Echis ocellatus venom [1] = assay: Murine 'challenge then treat' model of envenoming, intraperitoneal; assay type: in vivo, CD-1 mice
Procedure: FIG. 18. […] Kaplan-Meier survival graphs for experimental animals (n=5) that received E. ocellatus venom (intraperitoneal administration of 90 μg; 5×iv. LD50), followed by delayed drug treatment intraperitoneally 15 mins later. […] For the DMPS and antivenom (D+AV) group, experimental animals received 120 μg of DMPS 15 mins after venom, and intravenous antivenom (168 μl of the E. ocellatus monospecific antivenom EchiTAbG, MicroPharm Ltd, UK) 1 hr after venom delivery. All DMPS data presented is taken from Albulescu et al. “Preclinical validation of a repurposed metal chelator as an early-intervention therapeutic for hemotoxic snakebite. Sci. Trans. Med. 12, eaay8314 (2020)”).
To better mimic a snakebite scenario, mice were initially challenged with venom, followed by the delayed administration of a single drug or a combination of drugs, as previously described. The venom challenge dose was increased to ensure complete lethality in the venom-only control group occurred within 4-5 hours. Groups of five male 18-22 g CD-1 mice (Charles River, UK) were injected with venom (100 μl final volume), followed by a drug dose that was scaled up accordingly after 15 min. […] Experimental animals were monitored for 24 h, with humane end points for euthanasia, and data recording, performed as described above. […]

Echis ocellatus venom [2] = conditions: previous work, same preclinical model; cited from earlier work
[3] = Tolerability of oral DMPS; assay type: in vivo
[4] = Water solubility when preparing stocks; assay type: physicochemical
[5] = system: Echis ocellatus venom metalloproteinase activity; assay: In vitro snake venom metalloproteinase assay (quenched fluorogenic substrate), drug screen; assay type: biochemical; conditions: 10 μM drug, control drug
Procedure: FIG. 1. Inhibition of Echis ocellatus venom metalloproteinase activity by known matrix metalloproteinase inhibitors (MMPi) and rationally selected drugs based on their target site interactions. One microgram of whole venom per reaction was incubated with 10 μM of drug (dissolved in DMSO). Predicted metalloproteinase inhibitors were based on descriptors from a MedChemExpress commercial library and the literature. […] The percentage metalloproteinase activity was calculated from an endpoint read taken 45 minutes after substrate addition. The phospholipase inhibitor varespladib was included as a non-metalloproteinase inhibiting drug control.
The snake venom metalloproteinase activity in the presence of inhibitors or vehicle control (DMSO), was measured using a quenched fluorogenic substrate (ES010, R&D Biosystems). […] The substrate was suspended in reaction buffer (150 mM NaCl, 50 mM Tris-HCl pH 7.5). Reactions consisted of 1 μg/reaction of venom (1 μg in 15 μl PBS) co-incubated with 0.91 μl of 1 mM of inhibitor, both added using the VIAFLO 384 (Integra). […] Strong hits were determined as those with less than 20% metalloproteinase activity of the venom and mediocre hits between 20 and 50%. […]

Structure (SMILES) | survival (Echis ocellatus venom [1]; 90 μg venom i.p. (5×i.v. LD50), 120 μg of each drug i.p. 15 min later, 24 h monitoring, n=5) | adverse effects in drug-only controls (Echis ocellatus venom [1]; drug only, i.p., 24 hour monitoring) | time for which lethality was prevented (Echis ocellatus venom [2]) | oral dose that is well tolerated and safe [3] | water solubility [4] | inhibitory effect against venom metalloproteinase activity [5]
O=S(=O)(O)CC(S)CS (stereo not drawn) [DMPS, 2,3-dimercapto-1-propanesulfonic acid] | only two of the five experimental animals survived | None of the animals receiving DMPS alone displayed any adverse effects | ~8 h | up to 1,500 mg |  | 
CCc1c(C(=O)C(N)=O)c2c(OCC(=O)O)cccc2n1Cc1ccccc1 [varespladib] |  |  |  |  | water insolubility | no inhibitory effect
